Measurements from a melting point compilation (Tetko et al.; mined from patent text by program, amines drawn as free bases though some values may be those of a salt).

| Structure (SMILES) | melting point |
| --- | --- |
| CCN(CCOc1ccc(NC(=O)c2cccc3c(=O)c4ccccc4[nH]c23)cc1)Cc1ccccc1 | 157 °C |
| COc1cc(N)c2c(c1)OC(C)C2 (stereo unspecified) | 59 to 61 °C |
| CC(=O)c1c(C)[nH]c(CC(C)(C)C)c1C | 156 to 163 °C |
| Clc1cc2cc[nH]c2c(Cl)c1Cl | 97.5 to 98 °C |
| O=C1N(Cc2ncccc2C(F)(F)F)c2ccccc2C12COc1ccc3nonc3c12 (stereo unspecified) | 212 to 215 °C |
| NC1=NS(=O)N=C1NCCCCN(Cc1ccc(Cl)cc1)c1ccccn1 (stereo unspecified) | 175 to 177 °C |
| Nc1c(Cl)cc(C(O)CNCCCCCCOCCc2ccccn2)cc1Cl (stereo unspecified) | 94 to 96 °C |
| CC(C)(C)OC(=O)N1CCC(CC[C@@H]2CCCNC2=O)CC1 | 110 to 111 °C |
| Cn1ccnc1Sc1ccc(Nc2c(C#N)cnc3cc(/C=C/CN4CCCC4)ccc23)cc1Cl | 182 to 190 °C |
| CCC(O)(CC)[C@@H]1C[C@@H]([C@H](CC2CCCCC2)NC(=O)OC(C)(C)C)OC1=O | 118 to 120 °C |
| COC(=S)c1cc(C)cc(C)c1 | 46 °C |
| CN(C)C(=O)C=Cc1ccc(C=CC(=O)N(C)C)cc1 | 247 °C |
| CCCCc1nc2ccccc2n1Cc1ccc(-c2ccccc2CO)cc1 | 162 to 163 °C |
| Nc1nc(N)c(-c2cccc(Cl)c2Cl)c(COc2ccccc2)n1 | 211 to 213 °C |
| O=c1[nH]c2ccccc2n1C1CCN(CCCOc2ccc(F)cc2Cl)CC1 | 149 to 150 °C |
| CNS(=O)(=O)OCCOc1ccc(Cl)cc1 | 101 to 104 °C |
| CS(=O)c1nc(-c2ccc([N+](=O)[O-])cc2)c[nH]1 (stereo unspecified) | 220 to 222 °C |
| ClC(Cl)(Oc1ccccc1)Oc1ccccc1 | 42 to 44 °C |
| Cc1nc(C(Br)Br)nc(C(Br)Br)n1 | 87 to 88.5 °C |
| CC(C)N[C@@H]1CCc2c(ccc(OCc3ccccc3)c2CO)[C@H]1O (relative stereo) | 138 to 139 °C |
| CCn1ccc2nc(N3CCN(Cc4ccccc4)CC3)ncc2c1=O | 116 to 118 °C |
| CN1CCC(NC(=O)c2cccc(Cl)c2)C12CCCCC2 (stereo unspecified) | 121 to 122 °C |
| O=C(c1ccccc1)N1CCc2[nH]c3c(-c4ccccc4)cccc3c2CC1 | 198 to 200 °C |

| Structure (SMILES) | melting point |
| --- | --- |
| CN(c1cccc(C(F)(F)F)c1)c1nc2c(-c3cccc(C(=O)O)c3)cccc2n1C | 211 to 212 °C |
| CC1(C)CC(NC(=O)c2ccc(-c3cc4cc(Cl)c(Cl)cc4[nH]3)c(OCc3ccccc3)c2)CC(C)(C)N1 | 220 °C |
| CC(=O)SCCC(=O)NC1(C(=O)O)CCCC1 | 127 to 128 °C |
| N#Cc1c(NCCCn2ccnc2)cccc1Oc1ccc(-c2cn(C3CCOC3)c3ncnc(N)c23)cc1 (stereo unspecified) | 110 °C |
| ONCc1ccccc1 | 56 to 57 °C |
| O=[N+]([O-])c1ccc(S(=O)(=O)NCCc2ccccc2)c([N+](=O)[O-])c1 | 127 to 128 °C |
| CC(C)(C)OC(=O)N1CCCC(Nc2cc(Cl)n[nH]c2=O)C1 (stereo unspecified) | 195 to 196 °C |
| O=C(NCC1(O)CCCCCC1)c1cc(-c2ccc(Cl)c(C(=O)O)n2)ccc1Cl | 146 to 149 °C |
| CC(C)(C)OC(=O)NCCCCCCNC(=O)c1cccc(-c2nc(=O)c3ccccc3s2)n1 | 145 °C |
| CC(C)Nc1cccnc1N1CCN(C(=O)c2ccc(C(=O)N[C@H](CO)CC3CCCCC3)cc2)CC1 | 139 to 140 °C |
| O=[N+]([O-])c1cccc(OCCCl)c1 | 54.5 to 57 °C |
| C=CCN1C(=O)CSC1=NOC(=O)NC | 108 to 110 °C |
| Cc1c(C(=O)CBr)ncn1C | 276 to 277 °C |
| OC(c1ccccc1)C1CCCN1 (stereo unspecified) | 110 °C |
| CSc1cc2c(cc1C(F)(F)F)N(C(=O)Nc1ccc(C(=O)NCCN(C)C)cc1)CC2 | 154 to 155 °C |
| CC(C)(C)NCC(O)COc1ccc2c(=O)cc(-c3ccc(OCc4ccccc4)c(OCc4ccccc4)c3)oc2c1 (stereo unspecified) | 159 to 161 °C |
| CCCCOC1C=CC(=O)N1S(=O)(=O)c1cccs1 (stereo unspecified) | 56 to 57 °C |
| CC(C)(C)OC(=O)[C@H](Cc1ccc(O)cc1)NC(=O)C12CC3CC(C(=O)N1Cc1ccccc1)C2C3 (stereo partly specified) | 298 to 300 °C |
| CO[C@@H](C)[C@](C)(OC)c1cc(F)cc(OCc2ccc3ccccc3c2)c1 (racemic) | 58 to 59 °C |
| CCCCCOc1nc(Cl)nc2ccccc12 | 32 to 34 °C |
| CCCCNC(=O)Nc1ccccc1C(=O)OC | 84 to 85 °C |
| Cn1c(CCNC2CCN(Cc3ccccc3)CC2)cc2ccccc21 | 72 to 73 °C |

Second part, the compound after the results:

| melting point | Structure (SMILES) |
| --- | --- |
| 148 to 150 °C | CC(C)(C)c1ccc(C(=O)O)c(C(=O)O)c1 |
| 215 to 220 °C | COc1cc2c(NC3=CC(=O)C(Cl)=CC3=O)ncnc2cc1OCC1CCCCO1 (stereo unspecified) |
| 180 to 181 °C | COc1cc2ncnc(N3CCc4cc(C)ccc43)c2cc1OC |
| 88.5 to 91 °C | COc1ccccc1NCN1C(=O)CSC1=O |
| 121 to 122 °C | Cc1oc(-c2ccccc2)nc1COc1ccc(C(=O)c2ccccc2O)cc1 |
| 258 to 260 °C | Cc1c(-c2cc(Br)c(O)c(Br)c2)oc2ccc(OP(=O)(O)O)cc2c1=O |
| 95 to 96 °C | CC(C)CN1C(=O)c2cnc(-c3ccccc3)nc2N(C(=O)CCl)c2ccccc21 |
| 220 to 221 °C | Cc1ccc(-c2ccc(C(=O)Nc3ccc4cc(CN5CCCC5)cnc4c3C)cc2)s1 |
| 162 °C | C#Cc1ccc(Nc2c(C(=O)NOCCO)ccc(F)c2F)c(F)c1 |
| 228 to 230 °C | O=C1Nc2cc(Cl)cc(Cl)c2C1=O |
| > 300 °C | COCCn1cc2c(C3C(=O)Nc4ccc(Br)cc43)nc(NCCN3CCOCC3)nc2n1 (stereo unspecified) |
| 124 to 126 °C | COc1ccc(-c2ccc(C#CC(=O)O)s2)cc1C(C)(C)C |
| 133 to 134 °C | COC(=O)c1cc2c(C)ccc(Cl)c2[nH]1 |
| 55 to 57 °C | COc1cc(COc2ccccc2O)cc(OC)c1 |
| 148 to 149 °C | Cc1onc(-c2c(F)cccc2Cl)c1-c1csc(N)n1 |
| 184 to 185 °C | CNc1nnc(-c2ccc3occ(-c4ccc(OC(F)(F)F)cc4)c3c2)o1 |

| melting point | Structure (SMILES) |
| --- | --- |
| 206 to 208 °C | CC(=O)c1oc2ccc(Br)cc2c1NC(=O)c1cnoc1C |
| 177 °C | C=CCc1c(O)cc(C)c2ccc(=O)oc12 |
| 208 to 209 °C | O=C(C=C1CCCN1)c1ccc(Cl)c(Cl)c1 |
| 212 to 213 °C | CC1=CC(Cl)C(Cl)(c2cc(C)no2)C=C1C(=O)O (stereo unspecified) |
| 250 to 255 °C | COc1cc2ncc(C#N)c(Nc3cccc(CO)c3)c2cc1OC |
| 102 to 103 °C | CCOC(=O)CCc1cccc2c1NC(=O)CC2 |
| 196 to 197 °C | COC(C)Cn1c(C)nc2c(N)nc3ccccc3c21 (stereo unspecified) |
| 132 to 133 °C | Cc1nc(-c2ccc(OCc3ccncc3)cc2)no1 |
| 297 to 298 °C | O=C(O)c1ccc(-c2cc(-c3ccccc3)on2)cc1 |
| 128 to 131 °C | Cc1ccc(-c2cn(C)cc(-c3cccc(C(F)(F)F)c3)c2=O)c(C)c1 |
| 158 to 160 °C | N#Cc1cnn2c1N(C(=O)CI)CC=C2c1cccc(C(F)(F)F)c1 |
| 270 to 278 °C | Cc1c(F)c(F)cc2c(=O)c(C(=O)O)cn(-c3cc(O)c(F)cc3F)c12 |
| 236 to 237 °C | O=C1CN2Cc3cc(OCCCCCCO)ccc3N=C2N1 |
| 217 to 224 °C | CCOc1c(NCc2ccc(Br)cc2CC)c(=O)c1=O |
| 116 to 118 °C | CCOC(=O)c1cc(C)c(Cl)nc1Nc1ccccc1 |
